Assays:
[1] = molecular target: T1, Akt PH domain (Homo sapiens (Human), UniProt P31749); assay: PH domain translocation assay (GFP fusion, plasma membrane); type: cell-based; settings: PDGF stimulation
Method: Cells were transfected with the corresponding GFP-fusion vectors, serum starved overnight, and incubated with 100 μM PITs or PIT-1 is for 2 hr, followed by stimulation with 100 ng/ml PDGF or 250 ng/ml PMA for 5 min. The translocation was analyzed using fluorescent microscope and was quantitated by counting the number of cells with translocated PH domains in five random fields.
To begin characterizing cellular activity of PITs, a PH domain translocation assay was performed, measuring PIP3-induced association of GFP-fused PH domains with the plasma membrane. […] Varnai P et al. (1999) J Biol Chem 274:10983-9. Several PH-domain-containing proteins, which are known to bind PIP3 specifically and efficiently, were examined. […] Oikawa T et al. (2004) Nat Cell Biol 6:420-6.
Target sequence in this assay (P31749 5-108): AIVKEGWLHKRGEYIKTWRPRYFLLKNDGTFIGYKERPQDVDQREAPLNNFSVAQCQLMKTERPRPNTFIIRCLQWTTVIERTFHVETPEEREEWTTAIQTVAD

[2] = system: U87MG cells; assay: Combination with Akt kinase inhibitors in U87MG cells (western blot, ATP assay); type: cell-based, human
Method: U87MG cells were treated with 100 μM PIT-1, or 10 μM Akt inhibitor VIII (Calbiochem) or Akt inhibitor (Calbiochem), or 100 μM PIT-1 together with 10 μM Akt inhibitor VIII or Akt inhibitor, for 12 hr and then phosphorylation events were evaluated by western blot.

[3] = molecular target: T1, Akt PH domain; assay: Fluorescence polarization (FP) PIP3/Akt PH domain binding assay; settings: for IC50: 15 nM TMR-conjugated PIP3, PITs 6.25-200 μM, 30 min
From the text: (§1) In order to identify compounds that disrupt the interaction between PIP3 and PH domains, a high-throughput fluorescence polarization (FP)-binding assay was developed using recombinant 1-123 amino acid N-terminal fragment of human Akt1 (also referred to herein simply as Akt), encompassing the PH domain (PH123 protein), and fluorescent […] PIP3 molecule. The amino acid sequence of human Akt1 is publicly available as, for example, GenBank Accession No. NP_001014432.1 (SEQ ID NO:1), and the corresponding DNA sequence is publicly available as, for example, GenBank Accession No. NM_001014432. Briefly, 5 μM recombinant GST fusion proteins containing 1-123 a.a. N-terminal fragment of human Akt1 (PH 123) or 100 nM 441-551 a.a. region of human PDK1 were incubated with 15 nM TMR-labeled PIP3, PIP2, or PIP5 in buffer containing 50 mM Tris-HCl (pH 7.5), 150 mM NaCl, and 5 mM b-ME for 15 min at room temperature in the dark. FP values were determined using Wallac Victor 3 plate reader. For the primary screen, 50,000 diverse small molecules from Harvard Institute of Chemistry and Cell Biology were screened (iccb.med.harvard.edu). Incubations were carried out for 1 hr. For secondary assays, PIT compounds were added at various concentrations (6.25, 12.5, 25, 50, 100, 150 and 200 μM), followed by a 30 min incubation. The inhibition rates were calculated as inhibition rate=[1−(compound-treated group/control group)]×100%, and IC50 value was determined using Origin6 software (MicroCal, LLC, Northampton, Mass.).
Target sequence in this assay (P31749 1-123): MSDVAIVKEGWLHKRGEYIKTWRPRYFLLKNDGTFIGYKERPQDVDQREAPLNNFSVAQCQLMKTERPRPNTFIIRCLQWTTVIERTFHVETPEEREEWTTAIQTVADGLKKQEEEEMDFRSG

[4] = molecular target: PDK1 PH domain (Homo sapiens (Human), UniProt O15530); assay: FP PIP3/PDK1 PH domain binding assay; settings: 15 nM TMR-conjugated PIP3, 100 nM PDK1 PH domain, 30 min
From the text: as §1

[5] = molecular target: GRP1 PH domain (Homo sapiens, UniProt O43739); assay: FP PIP3/GRP1 PH domain binding assay; settings: 15 nM TMR-conjugated PIP3, 100 nM GRP1 PH domain, 30 min
[6] = system: U87MG cells; assay: cells; type: cell-based; settings: for IC50: Homo sapiens, U-87 MG, U87MG cells, 48 hr, ATP assay, read-out: Cell Viability IC50
Method: Based on the critical role of PIP3-dependent […] signaling in the regulation of cell survival, the effect of PIT-1 on the cancer cell viability was tested. Cancer cells were seeded into 96-well plates (white plates for ATP assay; black plates for fluorescent assay; clear plates for MTS assay) at the density of 5-10×10^3 cells per well in 100 μl of the appropriate media. Compounds were added at a series of concentrations and incubated for different times. For the ATP assay, a luminescence-based commercial kit (CellTiter-Glo, Promega, Madison, Wis.) was used. Thirty microliters of cell lysis/ATP detection reagent was added to each well, mixed for 10 min at room temperature, and the luminescence was measured using a Wallac Victor 3 plate reader (Perkin-Elmer, Wellesley, Mass.). For the MTS assay, a CellTiter 96 AQueous Non-Radioactive Cell Proliferation Assay Kit (Promega, Madison, Wis., USA) was used. Twenty microliters of the combined MTS/PMS solution was added into each well, incubated for 4 hr at 37° C., and the absorbance at 490 nm was measured using a Wallac Victor 3 plate reader. For the Sytox cell death assay, measuring loss of plasma membrane integrity, cells were incubated with 1 μM Sytox Green reagent (Molecular Probes, Eugene, Oreg.) for 30 min at 37° C. and the fluorescence intensity was measured using Wallac Victor 3 plate reader with excitation at 485 nm and emission at 545 nm. Next, 5 μl of 20% (v/v) Triton X-100 solution was added to each well and incubated for 1 hr at 37° C., and the signal was measured again. The ratio of values (percentage of dead cells in each well) before and after Triton X-100 treatment was calculated and normalized to the relevant controls not subjected to the cytotoxic stimuli. IC50 values were determined using Origin6 software (MicroCal, LLC, Northampton, Mass.).
To measure induction of cell death by PIT-1 derivatives, U87MG cells were incubated with PITs (1.56-300 μM) for 48 hr. Cell viability was determined using ATP assay.

[7] = Solubility (aqueous, cell media); type: physicochemical; settings: 300 μM unencapsulated
From the text: The size of the DM-PIT-1-loaded micelles was about 15 nm with a narrow size distribution.

[8] = system: 4T1 breast tumor; assay: Syngeneic 4T1 breast cancer growth in BALB/c mice; type: in vivo
Method: The effect of intravenous (i.v.) administration of both unencapsulated DM-PIT-1 in PBS and DM-PIT-1-M on the syngeneic 4T1 breast cancer growth in BALB/c mice was examined. 4T1 metastatic breast cancer cells were first cultured in vitro in DMEM medium containing 10% FBS and antibiotics. After re-suspension in PBS, the 4T1 cancer cells (8×10^4) were injected s.c. into axillary regions of BALB/c mice. The treatment with PIT-1 began on day 11 after inoculation of tumor cells, i.e., when tumors were palpable, but before tumors are precisely measurable (˜50 mm^3). Working solutions of all PIT-1-formulations were made in sterile 0.9% NaCl before injection into mice. […] If the tumor size reached approx. 1000 mm^3, the mice were euthanized using carbon dioxide (CO2) prior to cervical dislocation. Seven mice per group were used. The tumor volume (V) was measured every two days by microcaliper for 8 days. Tumor volume was calculated according to the formula (α×b^2)/2, where α is the longest and b is the shortest diameter of tumor, respectively. Tumor tissues were fixed in phosphate-buffered formalin, embedded in paraffin, cut in 4 μm thickness, and applied to slides. The slides were deparaffinized in xylenes using three changes for 5 min each, and hydrated gradually through graded alcohols: 100% ethanol twice for 10 min each, 95% ethanol twice for 10 min each, and then deionized water for 1 min with stirring. For antigen unmasking, slides were placed in a container, covered with 10 mM sodium citrate buffer, pH 6.0, and heated in a convection steamer for 1 hr. The slides were washed in deionized water three times for 2 min each, blocked with 5% normal goat blocking serum for 30 min, incubated with goat anti-CD31 primary antibody for 1 hr, and incubated with an Alexa Fluor 488-conjugated secondary antibody for 30 min. The slides were analyzed and photographed using a fluorescent microscope. TUNEL staining was performed using FragEL kit according to manufacturer's instructions (Calbiochem).

[9] = system: PI3K-PDK1-Akt pathway; assay: PIP3-regulated phosphorylation events in U87MG cells; type: cell-based, human
Method: The effect of PIT-1 on PIP3-mediated signaling was examined in U87MG glioblastoma cells, which show elevated basal levels of PIP3 due to the loss of PTEN. Pore N et al. (2003) Cancer Res 63:236-41.

[10] = system: U87MG cells; assay: Sensitization of U87MG cells to TRAIL, ATP assay; type: cell-based, human
Method: FIG. 10 is a bar graph depicting that PITs, as well as Akt inhibitor VIII, sensitize U87MG cells to killing by TRAIL. U87MG cells were incubated with 50 μM PIT-1, PIT-2, PIT-1i-1 or 10 μM Akt inhibitor VIII in the presence or absence of 10 ng/ml TRAIL for 48 hr, followed by cell viability analysis using ATP assay.
Upregulation of PI3K/Akt signaling is an important mechanism of chemoresistance of cancer cells. Blume-Jensen P et al. (2001) Nature 411:355-65; Osaki M et al. (2004) Apoptosis 9:667-76. […] Puduvalli V K et al. (2005) Apoptosis 10:233-43 TRAIL represents a particularly promising anti-cancer agent due to its intrinsic selectivity towards cancer cells which is associated with the expression of the decoy receptors by many (but not all) normal cells. Abe K et al. (2000) Ann NY Acad Sci 926:52-63. […] Oka N et al. (2005) Cancer Res 65:7546-53.

Sequence of PDK1 PH domain (O15530 441-551): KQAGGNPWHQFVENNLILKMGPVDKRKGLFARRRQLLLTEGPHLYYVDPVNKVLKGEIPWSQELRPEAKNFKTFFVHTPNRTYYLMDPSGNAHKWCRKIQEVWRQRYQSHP

## CCN(CC)CCCCN1c2ccccc2Oc2ccc(Cl)cc21 [Akt inhibitor X]
[1]
  plasma membrane translocation of Akt PH domain: Neither Akt inhibitor X nor allosteric inhibitor VIII blocked membrane translocation
[2]
  combination of Akt inhibitors VIII and X: no additive effect

## Cc1cc(C)cc(C(=O)NC(=S)Nc2cc([N+](=O)[O-])ccc2O)c1 [DM-PIT-1]
[3]
  IC50: 27.1 ± 3.2 µM
[4]
  IC50: 80.5 ± 3.1 µM
[5]
  IC50: 35.5 ± 3.8 µM
[6]
  IC50: 33.9 ± 2.2 µM
[6]; cell death in U87MG cells, cell migration, PI3K-PDK1-Akt signaling
  activity compared to PIT-1: increased activity in these assays compared to PIT-1
[7]
  precipitation in cell media: significant precipitation
[8]; day 8, 0.4 mg/kg/day i.v.
  reduction of tumor volume compared to control: 58.1%
  tumor volume: 380±52.3 mm^3
[8]; i.v. daily 8 days, DM-PIT-1 0.4 mg/kg, DM-PIT-1-M 1 mg/kg, P<0.01
  tumor growth compared to control: significantly attenuated tumor growth
[8]; mouse, in vivo
  tumor angiogenesis, CD31 loci: marked decrease in cancer angiogenesis

## Cc1cc(C)cc(C(=O)NC(=S)Nc2c(O)cc(C)c(Cl)c2C)c1 [PIT-3, N-(3-Chloro-6-hydroxy-2,4-dimethylphenylcarbamothioyl)-3,5-dimethylbenzamide]
[3]
  Akt potency and selectivity compared to PIT-1: improved Akt potency and selectivity compared to PIT-1
  IC50: 17.5 ± 1.6 µM
[4]
  IC50: 107 ± 3.9 µM
[5]
  IC50: > 200 µM
[6]
  IC50: 12.4 ± 0.9 µM
other
  melting point: 185 to 186 °C

## Cc1cc(C)cc(C(=O)NC(=S)Nc2cc(C(F)(F)F)ccc2O)c1 [PIT-4, N-(2-Hydroxy-5-(trifluoromethyl)phenylcarbamothioyl)-3,5-dimethylbenzamide]
[3]
  Akt potency and selectivity compared to PIT-1: improved Akt potency and selectivity compared to PIT-1
  IC50: 22.6 ± 3 µM
[4]
  IC50: > 200 µM
[5]
  IC50: > 200 µM
[6]
  IC50: 20.7 ± 3.3 µM
other
  melting point: 208 to 209 °C

## Cc1cc(C)cc(C(=O)NC(=S)Nc2c(O)cc(C(F)(F)F)cc2C(F)(F)F)c1 [PIT-5, N-(2-Hydroxy-4,6-bis(trifluoromethyl)phenylcarbamothioyl)-3,5-dimethylbenzamide]
[3]
  Akt potency and selectivity compared to PIT-1: improved Akt potency and selectivity compared to PIT-1
  IC50: 20.8 ± 2.5 µM
[4]
  IC50: > 200 µM
[5]
  IC50: > 200 µM
[6]
  IC50: 18.8 ± 1.7 µM
other
  melting point: 167 to 168 °C

## Cc1cc(C)cc(C(=O)NC(=S)Nc2c(O)cc(C)c(Br)c2C)c1 [PIT-6, N-(3-Bromo-6-hydroxy-2,4-dimethylphenylcarbamothioyl)-3,5-dimethylbenzamide]
[3]
  Akt potency and selectivity compared to PIT-1: improved Akt potency and selectivity compared to PIT-1
  IC50: 18.1 ± 3.1 µM
[4]
  IC50: > 200 µM
[5]
  IC50: > 200 µM
[6]
  IC50: 12.6 ± 2.1 µM
other
  melting point: 164.5 to 166 °C

## Cc1cc(C)cc(C(=O)NC(=S)Nc2cc(-c3ccccc3)ccc2O)c1 [PIT-7, N-(4-Hydroxybiphenyl-3-ylcarbamothioyl)-3,5-dimethylbenzamide]
[3]
  IC50: 13.4 ± 2.1 µM
[4]
  IC50: 52.3 ± 2.3 µM
[5]
  IC50: > 200 µM
[6]
  cytotoxicity / reduction of cancer cell viability relative to other PITs: strongest activity
  IC50: 6.6 ± 0.3 µM
[9]
  PI3K-PDK1-Akt signaling in U87MG cells: strongest activity

B1: TRAIL: Tumor necrosis factor (TNF)-related apoptosis-inducing ligand, 281 amino acid member of the TNF family of cytokines (protein, UniProt P50591 1-281, looked up)
Tumor necrosis factor ligand …: MAMMEVQGGPSLGQTCVLIVIFTVLLQSLCVAVTYVYFTNELKQMQDKYSKSGIACFLKEDDSYWDPNDEESMNSPCWQVKWQLRQLVRKMILRTSEETISTVQEKQQNISPLVRERGPQRVAAHITGTRGRSNTLSSPNSKNEKALGRKINSWESSRSGHSFLSNLHLRNGELVIHEKGFYYIYSQTYFRFQEEIKENTKNDKQMVQYIYKYTSYPDPILLMKSARNSCWSKDAEYGLYSIYQGGIFELKENDRIFVSVTNEHLIDMDHEASFFGAFLVG
[10]
  sensitivity of U87MG cells to TRAIL alone: entirely resistant

Reference: patent US8628961B2, “Small molecule antagonists of phosphatidylinositol-3,4,5-triphosphate (PIP3) and uses thereof” (Tufts University, priority 2010, dated 2014)
